Measurements taken from PMC6148290, “Endogenous metabolites of vitamin E limit inflammation by targeting 5-lipoxygenase” (Nature Communications, 2018).

How the values were obtained:
intracellular Ca^2+ = experiment: Intracellular Ca2+ in fMLP-stimulated PMNL; assay type: cell-based, human
Experimental: PMNL (1 × 10^6) were incubated with Fura-2/AM (Thermo Fisher Scientific; 2 nmol) for 45 min at 37 °C, washed, resuspended in PBS pH 7.4 plus 1 mg/ml glucose and transferred to fluorescene 96-well microplates (Greiner). After pre-incubation with compounds for 10 min, 1 mM Ca^2+ was added, and cells were stimulated with fMLP (1 µM) for another 10 min. Intracellular Ca^2+ concentrations were determined using a thermally (37 °C) controlled NOVOstar fluorescence microplate reader [BMG Labtech, Ortenberg, Germany; emission at 510 nm, excitation at 340 nm (Ca^2+-bound Fura-2) and 380 nm (free Fura-2)][17]. The maximal fluorescence signal was recorded after lysis of […] with Triton X-100, and the minimal fluorescence was assessed by adding 20 mM EDTA to chelate Ca^2+. The difference in the signal ratio obtained with Triton X-100 and Triton X-100 plus 20 mM EDTA was set to 100% for each experiment.

DPPH radical scavenging = conditions: DPPH
Experimental: Compounds were incubated with 2,2-diphenyl-1-picrylhydrazyl (DPPH, Sigma-Aldrich; […]) in ethanol for 30 min. Absorbance was measured at 520 nm using a Multiskan Spectrum Microplate Reader (Thermo Fisher Scientific)[35]. Ascorbic acid (Sigma-Aldrich; 50 µM), used as control, scavenged DPPH radicals by 82.4 ± 1.9%.

[1] = system: peripheral blood mononuclear cells; experiment: Cell viability of PBMC (MTT assay); assay type: cell-based, human; conditions: at 1 and 10 µM (one entry for both); 24 h; n.i. no inhibition
Experimental: The formazan product was solubilized with SDS (10% in 20 mM HCl), and absorbance was measured at 570 nm using a Multiskan Spectrum microplate reader (Thermo Fisher Scientific).

[2] = Water solubility (statement); assay type: physicochemical; conditions: authors' statement in reply to reviewer
15-LO = 15-LO product formation in A23187/AA-activated PMNL; assay type: cell-based, human; conditions: at 3 µM; mean ± s.e.m., n = 3; n.i. no inhibition
Experimental: (§1) Cells were washed and medium was exchanged. Freshly isolated PMNL (1 × 10^7) and stably transfected HEK-293 (1 × 10^6) cells were suspended in PBS pH 7.4 containing 1 mg/ml glucose and 1 mM CaCl2. […] A23187- and A23187/AA-treated PMNL and A23187/AA-treated HEK-293 (5-LO_wt), HEK-293 (5-LO_3W) and HEK-293 (5-LO_Arg101Asp) cells produced 135 ± 21, 636 ± 112, 300 ± 59, 133 ± 29, 55 ± 9 ng 5-LO products, respectively. PMNL synthesized 29 ± 6 ng 12-HETE and 97 ± 23 ng 15-HETE when challenged with A23187/AA. 5-LO products from monocytes were analyzed by UPLC-MS/MS.

12-LO = molecular target: T1, 12-LO (Homo sapiens, UniProt P18054); experiment: 12-LO product formation in A23187/AA-activated PMNL; assay type: cell-based; conditions: at 3 µM; mean ± s.e.m., n = 3; n.i. no inhibition
T1 construct: 12-HETE (12-LO product from platelets in PMNL preparations); endogenous in cells; host or cells: platelets contaminating human PMNL preparations
T1 sequence (P18054 1-663): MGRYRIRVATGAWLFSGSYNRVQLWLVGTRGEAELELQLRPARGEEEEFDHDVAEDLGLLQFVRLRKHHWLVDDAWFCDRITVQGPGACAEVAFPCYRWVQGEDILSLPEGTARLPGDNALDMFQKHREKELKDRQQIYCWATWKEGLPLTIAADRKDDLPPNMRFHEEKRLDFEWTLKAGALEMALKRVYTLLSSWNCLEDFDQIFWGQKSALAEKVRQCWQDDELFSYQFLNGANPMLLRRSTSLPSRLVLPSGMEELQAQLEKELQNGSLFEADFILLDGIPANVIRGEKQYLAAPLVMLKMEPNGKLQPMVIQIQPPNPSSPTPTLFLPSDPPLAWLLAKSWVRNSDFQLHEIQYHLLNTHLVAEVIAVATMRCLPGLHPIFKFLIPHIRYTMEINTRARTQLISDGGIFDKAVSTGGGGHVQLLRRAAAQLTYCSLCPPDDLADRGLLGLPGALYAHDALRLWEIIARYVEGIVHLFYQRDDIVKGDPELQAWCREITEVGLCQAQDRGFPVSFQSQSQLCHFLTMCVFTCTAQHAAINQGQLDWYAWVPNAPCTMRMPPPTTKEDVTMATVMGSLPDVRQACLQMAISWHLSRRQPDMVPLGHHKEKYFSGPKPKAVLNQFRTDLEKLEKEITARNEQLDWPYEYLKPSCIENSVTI
Experimental: as §1

water solubility [2]: poor
12-LO product formation/PMNL, residual activity (12-LO): 75.1 ± 12.1 % of control
Structure (SMILES): C/C(=C\CC/C(C)=C/CC[C@]1(C)CCc2cc(O)cc(C)c2O1)CC/C=C(\C)C(=O)O [4h, garcinoic acid]
concentration at which intracellular Ca^2+-influx was significantly reduced (intracellular Ca^2+): ≥ 1 µM
radical scavenging as measure for antioxidant activity (DPPH radical scavenging): only evident at micromolar
Cell viability/peripheral blood mononuclear cells, residual viability [1]: n.i.
15-LO product formation/PMNL, residual activity (15-LO): 128.6 ± 42.3 % of control
